For one series, the system named is CYP3A⅘. Kind of series: metabolism and interaction with strong CYP inducers (in vitro data and human PK data).
The conditions of series [1]: cited from earlier work.
For another series, the system named is status epilepticus. Kind of series: Case Report 1: IV to enteric GNX in a person with SE. Format: in vivo, human. The source says:
FIGS. 3A-3C show video EEGs in the patient described in Example 2 on day 1 (FIG. 3A), day 2 (FIG. 3B), and day 5 (FIG. 3C). […] Double banana bipolar montage: LFF 1 Hz, HFF 70 Hz; sensitivity, 15 µV/mm; time base, 30 mm/s. EEG, electroencephalogram; HFF, high-frequency filter; LFF, low-frequency filter.
A person with a history of sporadic primarily febrile and rare afebrile convulsive seizures in early childhood had been seizure-free for 10 years off medication until they began to have focal seizures with generalization. Seizure semiology was characterized by eye fluttering with rapid bilateral involvement at times with leftward head/eye deviation as clusters prior to generalization. They had recurrent seizures over the first three weeks and was admitted to an outside hospital for SE requiring intubation. […] They were transferred to the inpatient pediatric rehabilitation unit after being seizure-free for one month on 5 antiseizure medications (cannabidiol, perampanel, phenobarbital, lacosamide, lorazepam), pyridoxine, ketogenic diet, anakinra, and menstrual suppression.
A thorough infectious, metabolic, genetic, vascular and autoimmune evaluation was non-diagnostic. While in the inpatient rehabilitation unit they developed a fever of 41.7° C. and respiratory viral panel was positive for parainfluenza. SE returned requiring transfer to the ICU for midazolam and pentobarbital infusions. […] They were seizure-free for two days after drips were weaned before seizures returned prompting vagus nerve stimulator placement and a prolonged 2-week course of IV pentobarbital titrated to EEG burst suppression. As pentobarbital was weaned off, convulsive seizures returned.
They were granted E-IND approval for a trial of IV to enteric GNX. GNX was administered using an IV bolus followed by infusion over 4 days (with boluses as needed for breakthrough seizures): on day 1 pentobarbital was discontinued; by day 3 clinical and electrographic seizures stopped.
One month after ganaxolone initiation, the patient was transferred to inpatient rehabilitation services and they were discharged home 1 month later. They were weaned off the ketogenic diet, anakinra, and felbamate with minimal breakthrough clinical seizures (only in setting of intercurrent illness or decreasing ASMs). […] Patient continues to be on ganaxolone and 4 other ASMs (valproic acid, brivaracetam, lorazepam, perampanel). See, FIGS. 1, 2, and 3A-3C.

In series [2] the test system is γ-aminobutyric acid type A (GABAA) receptors. As to conditions: Carter et al 1997; cited from earlier work.
For a further series, the system named is SE. Kind of series: ganaxolone intravenous bolus plus continuous infusion in SE (inventors' earlier finding). It counts as in vivo. The following applies: plasma concentration 500 ng/ml or higher for at least about 8 hours. The source says: As described and exemplified herein, the inventors believe that ganaxolone holds promise as an effective therapy for SRSE. […] However, as discussed above, SRSE patients are an extremely ill subset of patients in which SE continues or recurs despite therapy with anesthetic agents (e.g., midazolam, propofol, ketamine, or barbiturate). […] When this occurs, the patient is typically then re-administered anesthetic agents at doses to cause burst suppression and to induce coma. As such, patients are typically weaned off anesthetics very slowly and typically by reducing anesthetics by no more than about 20% per day.

In series [3] the test system is super refractory status epilepticus. The experiment in a line: Case Report 3: IV-to-enteric ganaxolone in a person with super refractory status epilepticus (FIRES). Format: in vivo, human. The source says: A previously healthy person presented with encephalopathy and fever and developed super refractory status epilepticus concordant with fever-induced refractory […] (FIRES). On administration, the patient presented in the emergency department (ED) with fever, abdominal pain, and encephalopathy. Patient was admitted to pediatric intensive care unit (PICU) and placed on video-electroencephalogram (vEEG). See, FIG. 4.
Immunomodulatory therapies with IV methylprednisolone and IVIG were initiated concomitantly.
After multiple ASMs, failed attempts to wean pentobarbital, and ketamine and midazolam infusions, they were treated under EIND approval for a trial of IV-to-enteric ganaxolone. Ganaxolone was administered on hospital day 17 using an IV bolus, followed by infusion over 6 days (with boluses as needed for breakthrough seizures) (FIG. 5). Midazolam was discontinued on day 2 of GNX IV protocol; ketamine was discontinued by day 8 with the assistance of phenobarbital loads and maintenance Anakinra was initiated on day 2 of GNX IV protocol (hospital day 19).

Series [4] is described as follows: safety in the ganaxolone clinical development program. Format: in vivo, human. From the text: In the completed placebo-controlled Phase 1, 2, and 3 studies, 0.32% of subjects who received ganaxolone and 0.46% of subjects who received placebo developed elevated LFTs during the study (>3x ULN AST and/or ALT). A subject participating in the ganaxolone paediatric epilepsy study developed liver failure, which was not considered to be related to ganaxolone. The subject was diagnosed with short bowel syndrome, liver steatosis and IgG-cholangitis, which were considered to be the causal factors for the subject’s liver failure. There have been no other cases of Hy’s Law or liver failure in the ganaxolone development program. […] After cessation of the dosing, plasma ganaxolone levels are expected to drop rapidly, but it is possible that low sub-therapeutic levels persist for several days as ganaxolone is slowly released from tissues.
(§1) Ganaxolone has been administered to infants with severe forms of epilepsy as early as 4 months of age. In clinical trials involving administration of ganaxolone over several weeks, the study drug has been tapered off over a 1 to 2-week period.

Series [5] is described as follows: toxicology studies in animals focusing on prenatal and neonatal development. It counts as in vivo.
Text: as §1

Series [6] has as its system super refractory status epilepticus.

`CC(=O)[C@H]1CC[C@H]2[C@@H]3CC[C@H]4C[C@](C)(O)CC[C@]4(C)[C@H]3CC[C@]12C` [ganaxolone, 3α-hydroxy-3β-methyl-5α-pregnan-20-one]: the metabolizing enzyme result in the series with CYP3A⅘ (human, in vivo) is “metabolized by CYP3A⅘”. Further, in the series on CYP3A⅘ (subjects taking strong CYP inducers (carbamazepine and phenytoin)), the “lowering in overall ganaxolone levels and exposure” value is recorded as ~45%. Besides, the half-life result in series [1] (human plasma, oral administration, Nohria and Giller 2007) is reported as “approximately 20 hours”. Besides, the oral bioavailability result in [1] (in contrast to allopregnanolone) was “orally bioavailable”. For the same compound, the Tmax entry in [1] (in vivo) is “short”. For the same compound, the “day by which clinical and electrographic seizures stopped” value in the series on status epilepticus (IV bolus followed by infusion over 4 days) is ≤ 3 days. Further, in the series with status epilepticus (day 5 of protocol, transition from IV to enteric GNX), the “video EEG finding (FIG. 3C)” value is on record as “cessation of seizures”. Besides, the “seizure status after transition from IV to enteric GNX” value in the series with status epilepticus (from Day 5) was “has remained seizure-free”. For the same compound, the durability of response entry in the series with status epilepticus (more than one year later) is “response to ganaxolone and seizure cessation were sustained”. For the same compound, in series [2], the “action on GABAA receptors in the CNS” value is reported as “positive allosteric modulator”. The “suppression of SE” value with SE is “rapid and continued suppression of SE”. Besides, the “day of GNX IV protocol on which midazolam was discontinued” value in [3] (IV bolus, infusion over 6 days) was 2 days. Also, the clinical status result in [3] (at 6 weeks, transfer from ICU to the floor) was “alert and was responsive with some vocalizations”; in series [3] (by 4 weeks after admission), “more responsive”. For the same compound, the “day by which ketamine was discontinued” value in [3] (with the assistance of phenobarbital loads and maintenance) is ≤ 8 days. Moreover, in series [4] (clinical trials, tapered off over 1 to 2 weeks), the “withdrawal symptoms after cessation” value is “no reports of withdrawal symptoms”. Moreover, the “subjects who developed elevated LFTs (>3x ULN AST and/or ALT)” value in series [4] (completed placebo-controlled Phase 1, 2, and 3 studies) turned out to be 0.32%. Besides, the “ECG intervals, vital signs, physical or neurological examinations” value in series [4] (development program overall) was “no clinically significant trends”. Also, the “excretion to breast milk” value in series [4] (ganaxolone and its metabolites) is “excreted to breast milk”. Also, the “prenatal and neonatal developmental toxicity” value in [5] was “have not demonstrated toxicities”. For the same compound, the “time to improvement on EEG” value in series [6] (after IV GNX bolus 0.64 mg/kg) is ≤ 10 min. Further, the “clinical seizures after hospitalization” value in series [6] (four weeks after discharge, on oral GNX, 20 seizures per day at baseline) is on record as “no clinical seizures”. Besides, the “time of IV GNX until extubation” value in series [6] (in vivo, iv) was determined as 48 h.

The values are drawn from US20230364109A1, “GANAXOLONE FOR USE IN TREATMENT OF SUPER REFRACTORY STATUS EPILEPTICUS” (MARINUS PHARMACEUTICALS, INC., priority 2020, published 2023).
